“Also recorded” adds a separate entry of the source.
Legend:
NF220 (neurofilament) = assay: Metabolic labeling of isolated sister axoplasms with 32P-ATP, autoradiography/PHOSPHORIMAGER; type: cell-based, squid; conditions: compared to WT-SOD1-perfused sister axon; 50-minute incubation; n=4; p≦0.0284
Description: To determine whether mutant SOD1 could induce activation of axonal kinases, metabolic labeling experiments were performed in isolated axoplasms. These procedures helped evaluate effects of WT-SOD1 and G93-SOD1 polypeptides on the phosphorylation pattern of axonal proteins. Two axons from the same squid (“sister” axons) were dissected and extruded. One axon was perfused with WT-SOD1, whereas the contralateral “sister” axon was perfused with G93A-SOD1 in the presence of P^32-radiolabelled ATP. After a 50-minute incubation, axoplasms were lysed and analyzed by autoradiography. Neurofilament (NF) proteins represent the major phosphoproteins proteins in both squid axoplasm and mammalian axons. Consistent with this, increased phosphorylation of NFs represents a well-documented feature early in the course of ALS.

GSK3 = assay: Immunoblot of sister axoplasms with activation-specific phosphoantibodies (GSK3); type: cell-based, squid; conditions: G93A-SOD1 vs WT-SOD1-perfused axoplasms
Description: (§1) To refine this identification, activation of various p38 and other NF kinases were evaluated in “sister” axoplasms. […] Quantitative analysis of immunoblots indicated G93A-SOD1 induced approximately a 4-fold increase in p38 activity, compared to WT-SOD1 perfused of p38 (n=8).

[1] = tested on: fast axonal transport (FAT), anterograde (conventional kinesin-dependent) and retrograde (CDyn-dependent); assay: Vesicle motility assays in isolated squid axoplasm perfused with SOD1 polypeptides; type: cell-based; conditions: polypeptides perfused at 5 μM; video-enhanced microscopy over 50 minutes
Description: Although the axonal compartment represents a critical pathogenic target in ALS, axon-specific effects of mutant SOD1 have not been previously addressed. […] However, it was not clear whether those defects resulted from pathogenic events in the neuronal cell body, or from alterations of cellular processes within the axonal compartment (Conforti, et al. (2007) Trends Neurosci. 30:159-66). Therefore, axon-autonomous effects of pathogenic SOD1 on FAT were evaluated using vesicle motility assays in isolated squid axoplasm, which lacks both nuclear and protein synthetic synthesis compartments. This experimental system allows for quantitative analysis of MBOs moving in both anterograde (conventional kinesin-dependent) and retrograde (cytoplasmic dynein-dependent) FAT rates. Further, the lack of plasma membrane in this preparation facilitates an evaluation of the effects of neuropathogenic proteins on FAT.
Highly purified (>95%), recombinant forms of wild-type SOD1 (WT-SOD1) and […] fALS-related SOD1 mutants (G93A-SOD1, G85R-SOD1, H46R and A4V-SOD1) were according to standard methods (Strange, et al. (2003) J. Mol. Biol. 328:877-891). Polypeptides were perfused at 5 μM concentration, and both anterograde (conventional kinesin-dependent) and retrograde (CDyn-dependent) FAT rates analyzed by video-enhanced microscopy over 50 minutes. Perfusion of wild type SOD1 (WT-SOD1) had no effect on either direction of FAT. […] Further, the presence of ATP (5 mM) in the perfusion buffer also ruled out mutant SOD1-induced deficits in ATP production.

p38 = assay: Immunoblot of sister axoplasms with antibodies against phosphorylated, catalytically active p38; type: cell-based, squid; conditions: compared to WT-SOD1-perfused axoplasm; n=8
Description: as §1

JNK = assay: Immunoblot of sister axoplasms with activation-specific phosphoantibodies (JNK); type: cell-based, squid; conditions: G93A-SOD1 vs WT-SOD1-perfused axoplasms
Description: as §1

ERK = assay: Immunoblot of sister axoplasms with activation-specific phosphoantibodies (ERK); type: cell-based, squid; conditions: G93A-SOD1 vs WT-SOD1-perfused axoplasms
Description: as §1

[2] = tested on: inhibition of anterograde FAT by G93A-SOD1; assay: Co-perfusion of G93A-SOD1 with kinase inhibitors in squid axoplasm (vesicle motility assay); type: cell-based; conditions: for prevention of the inhibition of anterograde FAT induced by G93A-SOD1: co-perfused with recombinant G93A-SOD1 in axoplasm
Description: Increased phosphorylation of neurofilament indicated altered kinase activity with mutant SOD1 and kinases represent a major mechanism for the regulation of conventional kinesin (Donelan, et al. (2002) J. Biol. Chem. 277:24232-42; Morfini, et al. (2006) Nat. Neurosci. 9:907-16; Morfini, et al. (2002) EMBO J. 23:281-93; Morfini, et al. (2001) Dev. Neurosci. 23:364-76). Accordingly, it was determined whether specific protein kinases mediated the effect of mutant SOD1 on anterograde FAT. To this end, axoplasms were co-perfused with recombinant G93A-SOD1 and specific pharmacological or peptide inhibitors of protein kinases. Co-perfusion approaches have facilitated the identification of kinase-dependent pathogenic pathways in other models.
SB203580 is a highly specific pharmacological kinase inhibitor of the mitogen-activated protein kinase (MAPK) p38, and its specificity has been evaluated for more than 100 kinases (Fabian, et al. (2005) Nat. Biotechnol. 23:329-36).
In addition to the docking interactions of MAPKs with MKKs, substrates and regulators there are specific motifs that control the interactions of MKKKs and MKKs. A docking site termed DVD (domain for versatile docking) is found in several MKKs including MKK3 and MKK6, which are involved in p38 regulation. […] Observations of p38 activation in an ALS mouse model prompted the evaluation of the role of MKKs in mediating the inhibitory effect of mutant SOD1 on FAT. To this end, pharmacological inhibitors of MKKKs were co-perfused along with SOD1-G93A in squid axoplasm. The MLK-specific inhibitor CEP11004 (Ganguly, et al. (2004) J. Neurochem. 88(2):469) was ineffective, but co-perfusion of mutant SOD1 with DVD peptide prevented the effects of mutant SOD1 on FAT. The DVD site on MKKs is required for docking and activation by a subset of upstream MKKKs (ASK1, TAK1, etc.), and peptides based on this sequences prevents MAPK activation in cultured cells (Takekawa, et al. (2005) Mol. Cell. 18(3):295).

[3] = tested on: KHC584 (first 584 amino acid residues of kinesin-1c); assay: In vitro kinase assay of recombinant p38α with KHC584; type: biochemical; conditions: sites mapped to Ser175 and Ser176 by LC/MS/MS
Description: Although p38α was implicated in mediating the inhibitory effect of pathogenic SOD1 on FAT, specific p38α targets relevant to these effects needed to be determined (Bendotti, et al. (2005) Neurodegener. Dis. 2:128-34). […] These precedents prompted the determination of whether p38α could directly phosphorylate kinesin-1 subunits of conventional kinesin.
Liquid chromatography tandem mass spectrometry (LC/MS/MS) was used to map KHC584 residues phosphorylated by p38α. To this end, in vitro phosphorylated KHC584 was directly digested with trypsin for LC/MS/MS analysis. Trypsin digest products were fractioned on a C18 HPLC connected to an on-line electrospray ion trap mass spectrometer. Peptide identification was done using SEQUEST algorithm. KHC584 identity was confirmed by identification of multiple kinesin-1C peptides. A peptide corresponding to amino acids 174-188 with unequivocal evidence of phosphorylation by p38α was identified based on spectrum analysis, cross correlation and delta correlation values. Tandem mass spectrometry analysis (MS/MS) by collision-induced dissociation further mapped phosphorylation on both Ser175 and Ser176, consistent with studies showing phosphorylation of Ser176 by the MAPK JNK3. Remarkably, serines 175 and 176 are conserved among squid, mouse and human kinesin-1s (FIG. 4). […]

[4] = tested on: fast axonal transport (FAT); assay: Vesicle motility assays in squid axoplasm perfused with recombinant active p38 isoforms; type: cell-based
Description: Four p38 genes exist in mammals (p38α, p38β, p38γ, and p38δ) (Kyriakis & Avruch (2001) Physiol. Rev. 81:807-69). The p38α and p38β kinases are major p38 isoforms within the nervous system (Lee, et al. (2000) J. Neurosci. Res. 60:623-31), as well as being the most prominent p38 isoforms expressed in motor neurons of the anterior horn spinal cord, the main cell type affected in ALS (Ackerley, et al. (2004) Mol. Cell. Neurosci. 26:354-64). The effect of specific p38 isoforms on FAT was evaluated using vesicle motility assays. The enzymatic activities of recombinant p38 isoforms were first normalized using in vitro kinase assays with ATF-2 as substrate.

[5] = tested on: N2A cells stably transfected with G85R-SOD1; assay: Cell viability (LDH) assay, cells exposed to cyclosporine (CsA); type: cell-based; conditions: various concentrations of CsA, presence or absence of inhibitor
Description: (§2) Multiple studies have documented activation of apoptotic mechanism in association with mutant SOD1 expression (Pasinelli, et al. (2004) Neuron 43:19-30). […] To evaluate the role of p38 in this process, cell viability (LDH) and caspase activity assays were performed using N2A cells stably transfected with WT-SOD1 or G85R-SOD1 constructs. […] N2A cells were exposed to various concentrations of CsA in the presence or absence of the p38 inhibitor SB203580.

[6] = tested on: N2A cells stably transfected with G85R-SOD1; assay: Caspase-3 activity assay, cells exposed to cyclosporine (CsA); type: cell-based; conditions: various concentrations of CsA, presence or absence of inhibitor
Description: as §2

G93A-SOD1: recombinant fALS-related SOD1 mutant G93A
increase in overall NF220 phosphorylation (NF220 (neurofilament)): 2 fold
change in GSK3 activity (GSK3): did not reveal changes
effect on anterograde FAT rate [1]: selectively inhibited
increase in p38 activity (p-p38 immunoblot) (p38): ~4 fold
change in JNK activity (JNK): did not reveal changes
change in ERK activity (ERK): did not reveal changes

CEP11004
prevention of the inhibition of anterograde FAT induced by G93A-SOD1 [2]: ineffective

p38α: recombinant active p38 isoform α
phosphorylation of KHC584 [3]: phosphorylated
effect on FAT ([4]; perfused at 10 nM): most closely mimicked; also recorded: selective inhibition of anterograde FAT

WT-SOD1: highly purified recombinant wild-type SOD1
effect on anterograde FAT rate [1]: no effect
effect on retrograde FAT rate [1]: no effect

C[S+]([O-])c1ccc(-c2nc(-c3ccncc3)c(-c3ccc(F)cc3)[nH]2)cc1 (stereo not shown) [SB203580]
attenuation of cell death (LDH) [5]: significant attenuation
anterograde FAT rates compared with WT-SOD1-perfused axoplasm ([2]; co-perfused with G93A-SOD1, FIG. 2): undistinguishable
prevention of the inhibition of anterograde FAT induced by G93A-SOD1 [2]: protective effects; also recorded: completely prevented
attenuation of caspase activation (caspase-3 activity) [6]: significant attenuation

B1: p38δ: recombinant active p38 isoform δ (protein, UniProt O15264 1-365, looked up)
Mitogen-activated protein …: MSLIRKKGFYKQDVNKTAWELPKTYVSPTHVGSGAYGSVCSAIDKRSGEKVAIKKLSRPFQSEIFAKRAYRELLLLKHMQHENVIGLLDVFTPASSLRNFYDFYLVMPFMQTDLQKIMGMEFSEEKIQYLVYQMLKGLKYIHSAGVVHRDLKPGNLAVNEDCELKILDFGLARHADAEMTGYVVTRWYRAPEVILSWMHYNQTVDIWSVGCIMAEMLTGKTLFKGKDYLDQLTQILKVTGVPGTEFVQKLNDKAAKSYIQSLPQTPRKDFTQLFPRASPQAADLLEKMLELDVDKRLTAAQALTHPFFEPFRDPEEETEAQQPFDDSLEHEKLTVDEWKQHIYKEIVNFSPIARKDSRRRSGMKL
effect on FAT ([4]; perfused at 50 nM): no effect
effect on FAT ([4]; perfused at 50 nM, listed as p385): did not affect FAT

B2: p38γ: recombinant active p38 isoform γ (protein, UniProt P53778 1-367, looked up)
Mitogen-activated protein …: MSSPPPARSGFYRQEVTKTAWEVRAVYRDLQPVGSGAYGAVCSAVDGRTGAKVAIKKLYRPFQSELFAKRAYRELRLLKHMRHENVIGLLDVFTPDETLDDFTDFYLVMPFMGTDLGKLMKHEKLGEDRIQFLVYQMLKGLRYIHAAGIIHRDLKPGNLAVNEDCELKILDFGLARQADSEMTGYVVTRWYRAPEVILNWMRYTQTVDIWSVGCIMAEMITGKTLFKGSDHLDQLKEIMKVTGTPPAEFVQRLQSDEAKNYMKGLPELEKKDFASILTNASPLAVNLLEKMLVLDAEQRVTAGEALAHPYFESLHDTEDEPQVQKYDDSFDDVDRTLDEWKRVTYKEVLSFKPPRQLGARVSKETPL
effect on FAT ([4]; perfused at 100 nM): lesser extent; also recorded: more modest effect

B3: p3813: recombinant active p38 isoform β (misprinted) (protein, UniProt Q15759 1-364, looked up)
Mitogen-activated protein …: MSGPRAGFYRQELNKTVWEVPQRLQGLRPVGSGAYGSVCSAYDARLRQKVAVKKLSRPFQSLIHARRTYRELRLLKHLKHENVIGLLDVFTPATSIEDFSEVYLVTTLMGADLNNIVKCQALSDEHVQFLVYQLLRGLKYIHSAGIIHRDLKPSNVAVNEDCELRILDFGLARQADEEMTGYVATRWYRAPEIMLNWMHYNQTVDIWSVGCIMAELLQGKALFPGSDYIDQLKRIMEVVGTPSPEVLAKISSEHARTYIQSLPPMPQKDLSSIFRGANPLAIDLLGRMLVLDSDQRVSAAEALAHAYFSQYHDPEDEPEAEPYDESVEAKERTLEEWKELTYQEVLSFKPPEPPKPPGSLEIEQ
effect on FAT ([4]; perfused at 50 nM): inhibited both anterograde and retrograde FAT

— patent publication US20100227793A1, “Compositions and Methods for Treating Amyotrophic Lateral Sclerosis” (priority 2009, published 2010)
